Experimental data: patent publication US20260242419A1, “A CYCLIC PEPTIDE FOR TRAPPING INTERLEUKIN-1 BETA” (Merck Sharp & Dohme LLC, priority 2023, published 2026)
Non-standard residues stand in square brackets, D forms with d. Residues, ends and D or L forms follow the SMILES beside them. *: point of attachment. Phe(4-(5-CO2H-2-pyrimidyl)) = N[C@@H](Cc1ccc(-c2ncc(C(=O)O)cn2)cc1)C(=O)O; Trp(4-Cl)(βS-Me) = C[C@@H](c1c[nH]c2cccc(Cl)c12)[C@H](N)C(=O)O; dPro(4R-(4-pyridylmethyl)) = O=C(O)[C@H]1C[C@@H](Cc2ccncc2)CN1; Trp(βS-Me,4-F) = C[C@@H](c1c[nH]c2cccc(F)c12)[C@H](N)C(=O)O; Bip(4'-COOH) = N[C@@H](Cc1ccc(-c2ccc(C(=O)O)cc2)cc1)C(=O)O; Ala(1-bicyclo(1.1.1)pentyl) = N[C@@H](CC12CC(C1)C2)C(=O)O; dPro(4R-Bzl(4-F)) = O=C(O)[C@H]1C[C@@H](Cc2ccc(F)cc2)CN1; Phe(2-Cl,4-COOH) = N[C@@H](Cc1ccc(C(=O)O)cc1Cl)C(=O)O; Ala(pyrimidin-5-yl) = N[C@@H](Cc1cncnc1)C(=O)O; Phe(4-COOH) = N[C@@H](Cc1ccc(C(=O)O)cc1)C(=O)O; Pro(cis-4-F) = O=C(O)[C@@H]1C[C@H](F)CN1; Ala(4-THP) = N[C@@H](CC1CCOCC1)C(=O)O; AEF = NCCOc1ccc(C[C@H](N)C(=O)O)cc1; d(αMeD) = C[C@@](N)(CC(=O)O)C(=O)O; 4Pal = N[C@@H](Cc1ccncc1)C(=O)O; aThr = C[C@H](O)[C@H](N)C(=O)O; Dab = NCC[C@H](N)C(=O)O; Aib = CC(C)(N)C(=O)O; Bz = O=C(c1ccccc1)*

Target: T1, IL-1β (Homo sapiens, UniProt P01584)
T1 construct: purchased BioLegend 579404
T1 sequence (P01584 117-269): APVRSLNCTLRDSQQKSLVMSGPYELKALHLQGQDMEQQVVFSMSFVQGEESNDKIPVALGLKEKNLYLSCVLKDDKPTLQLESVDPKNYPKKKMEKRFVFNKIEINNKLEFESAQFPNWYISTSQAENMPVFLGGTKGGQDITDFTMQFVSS
Assay: IL-6 assay in MRC5 cells: inhibition of IL-1β induced IL-6 secretion (AlphaLISA)
Type: cell-based
Details: inhibition of IL-1β induced IL-6 secretion in MRC5 cells; read-out: MRC5 IC50
Procedure: Procedure for IL-6 Assay in MRC5 Cells
The inhibition of IL-1β induced IL-6 secretion was evaluated in MRC5 cells. Recombinant human IL-1β (BioLegend 579404) at 2λ EC80 concentration was prepared in seeding medium. EMEM (ATCC 30-2003) with 0.025% BSA (Sigma A9576), 1×penicillin/streptomycin (Gibco 15070-063), 1×NEAA (Gibco 11140-050), 1×GlutaMax (Gibco 35050-061), and 1×sodium pyruvate (Gibco 11360-070), 20 μL of IL-1β was added to a 384-well collagen-coated plate (Corning 354664) and pre-incubated at ambient temperature for 1 hour with 200 nL of compound dispensed using an ECHO 555 liquid handler. Human lung fibroblast MRC5 cells (ATCC CCL-171) were added at a density of 3000 cells/20 μL per well. The cells were prepared by passaging three times in growth medium, EMEM (ATCC 30-2003) with 10% fetal bovine serum (Gibco 16140-071), 1×penicillin/streptomycin (Gibco 15070-063), 1×NEAA (Gibco 11140-050), 1×GlutaMax (Gibco 35050-061), and 1×sodium pyruvate (Gibco 11360-070) in collagen-coated T175 flasks (Greiner 661950) and harvested in seeding medium after 5 minutes of 0.25% trypsin-EDTA (Gibco 25200-056) digestion. The 384-well collagen-coated plate, containing a final volume of 40 μL, was incubated at 37° C., 5% CO2 overnight. 5 μL of the conditioned medium was transferred to a 384-well AlphaLISA plate (PerkinElmer 6005350) for detection of IL-6 using the human AlphaLISA IL-6 kit (PerkinElmer AL223F) as per the manufacturer's protocol. 20 μL of the acceptor bead/biotinylated antibody mix was added to the 384-well AlphaLISA plate and incubated for 1 hour at ambient temperature. The donor bead mix was protected from light and 25 μL was added to the plate and incubated for 30 minutes at ambient temperature. The AlphaLISA plate was read on an EnVision multimode plate reader (Perkin Elmer model 2104) using the AlphaScreen setting (laser exc at 680 nm and emis at […]). Dose response curves and IC50 values were analyzed using a 4-parameter logistic equation in Spotfire software (Tibco, Palo Alto, CA).

Q: Which IC50 does the source give for `C[C@H](O)[C@@H]1NC(=O)[C@@](C)(CC(=O)O)NC(=O)[C@H](Cc2c[nH]c3ccccc23)NC(=O)[C@H](CO)NC(=O)C(C)(C)NC(=O)[C@H]([C@@H](C)c2c[nH]c3cccc(Cl)c23)NC(=O)[C@@H]2C[C@H](F)CN2C(=O)CNC(=O)[C@H](Cc2ccc(C(=O)O)cc2Cl)NC(=O)[C@H](Cc2ccncc2)NC(=O)[C@H](Cc2ccc(-c3ccc(C(=O)O)cc3)cc2)NC(=O)[C@H]2C[C@@H](Cc3ccncc3)CN2C(=O)CNC(=O)[C@H](CCN)NC(=O)[C@H](CCC(N)=O)NC1=O` [Example 355] (cyclo([Bip(4'-COOH)][4Pal][Phe(2-Cl,4-COOH)]G[Pro(cis-4-F)][Trp(4-Cl)(βS-Me)][Aib]SW[d(αMeD)][aThr]Q[Dab]G[dPro(4R-(4-pyridylmethyl))])) here?
A: The IC50 was 0.013 nM.

Q: `C[C@@H]1NC(=O)C(C)(C)NC(=O)[C@H]([C@@H](C)c2c[nH]c3cccc(F)c23)NC(=O)[C@@H]2C[C@H](F)CN2C(=O)CNC(=O)[C@H](Cc2ccc(C(=O)O)cc2)NC(=O)[C@H](CC23CC(C2)C3)NC(=O)[C@H](Cc2ccc(-c3ncc(C(=O)O)cn3)cc2)NC(=O)[C@H]2C[C@@H](Cc3ccncc3)CN2C(=O)CNC(=O)[C@H](CCN)NC(=O)[C@H](CCC(N)=O)NC(=O)[C@H](Cc2ccncc2)NC(=O)C(C)(C)NC(=O)[C@H](Cc2c[nH]c3ccccc23)NC1=O` [Example 88] (cyclo([Phe(4-(5-CO2H-2-pyrimidyl))][Ala(1-bicyclo(1.1.1)pentyl)][Phe(4-COOH)]G[Pro(cis-4-F)][Trp(βS-Me,4-F)][Aib]AW[Aib][4Pal]Q[Dab]G[dPro(4R-(4-pyridylmethyl))])) was tested. Which IC50 did it give?
A: Its IC50 is 0.083 nM.

Q: Which IC50 does the source give for `C[C@@H](c1c[nH]c2cccc(F)c12)[C@@H]1NC(=O)[C@@H]2C[C@H](F)CN2C(=O)CNC(=O)[C@H](Cc2ccc(C(=O)O)cc2)NC(=O)[C@H](Cc2ccncc2)NC(=O)[C@H](Cc2ccc(-c3ccc(C(=O)O)cc3)cc2)NC(=O)[C@H]2C[C@@H](Cc3ccc(F)cc3)CN2C(=O)CNC(=O)[C@H](CCN)NC(=O)[C@H](CCC(N)=O)NC(=O)[C@H](CC2CCOCC2)NC(=O)[C@@](C)(CC(=O)O)NC(=O)[C@H](Cc2c[nH]c3ccccc23)NC(=O)[C@H](CO)NC(=O)C(C)(C)NC1=O` [Example 313] (cyclo([Bip(4'-COOH)][4Pal][Phe(4-COOH)]G[Pro(cis-4-F)][Trp(βS-Me,4-F)][Aib]SW[d(αMeD)][Ala(4-THP)]Q[Dab]G[dPro(4R-Bzl(4-F))])) here?
A: The IC50 was 0.015 nM.

Q: Which IC50 does the source give for `C[C@@H](c1c[nH]c2cccc(F)c12)[C@@H]1NC(=O)[C@@H]2C[C@H](F)CN2C(=O)CNC(=O)[C@H](Cc2ccc(C(=O)O)cc2)NC(=O)[C@H](CC23CC(C2)C3)NC(=O)[C@H](Cc2ccc(-c3ccc(C(=O)O)cc3)cc2)NC(=O)[C@H]2C[C@@H](Cc3ccncc3)CN2C(=O)CNC(=O)[C@H](CCN)NC(=O)[C@H](CCC(N)=O)NC(=O)[C@H](Cc2ccncc2)NC(=O)C(C)(C)NC(=O)[C@H](Cc2c[nH]c3ccccc23)NC(=O)[C@H](CCC(=O)O)NC(=O)C(C)(C)NC1=O` [Example 45] (cyclo([Bip(4'-COOH)][Ala(1-bicyclo(1.1.1)pentyl)][Phe(4-COOH)]G[Pro(cis-4-F)][Trp(βS-Me,4-F)][Aib]EW[Aib][4Pal]Q[Dab]G[dPro(4R-(4-pyridylmethyl))])) here?
A: Its IC50 is 0.027 nM.

Q: `C[C@@H](c1c[nH]c2cccc(F)c12)[C@@H]1NC(=O)[C@@H]2C[C@H](F)CN2C(=O)CNC(=O)[C@H](Cc2ccc(C(=O)O)cc2)NC(=O)[C@H](Cc2ccncc2)NC(=O)[C@H](Cc2ccc(OCCNC(=O)c3ccccc3)cc2)NC(=O)[C@H]2C[C@@H](Cc3ccncc3)CN2C(=O)CNC(=O)[C@H](CCN)NC(=O)[C@H](CCC(N)=O)NC(=O)[C@H](Cc2cncnc2)NC(=O)C(C)(C)NC(=O)[C@H](Cc2c[nH]c3ccccc23)NC(=O)[C@H](CO)NC(=O)C(C)(C)NC1=O` [Example 308] (cyclo([AEF](Bz)[4Pal][Phe(4-COOH)]G[Pro(cis-4-F)][Trp(βS-Me,4-F)][Aib]SW[Aib][Ala(pyrimidin-5-yl)]Q[Dab]G[dPro(4R-(4-pyridylmethyl))])) was tested. Which IC50 did it give?
A: The IC50 was 0.013 nM.

Q: Which IC50 does the source give for `C[C@@H](c1c[nH]c2cccc(F)c12)[C@@H]1NC(=O)[C@@H]2C[C@H](F)CN2C(=O)CNC(=O)[C@H](Cc2ccc(C(=O)O)cc2)NC(=O)[C@H](Cc2ccncc2)NC(=O)[C@H](Cc2ccc(-c3ccc(C(=O)O)cc3)cc2)NC(=O)[C@H]2C[C@@H](Cc3ccncc3)CN2C(=O)CNC(=O)[C@H](CCN)NC(=O)[C@H](CCC(N)=O)NC(=O)[C@H](Cc2cncnc2)NC(=O)C(C)(C)NC(=O)[C@H](Cc2c[nH]c3ccccc23)NC(=O)[C@H](CO)NC(=O)C(C)(C)NC1=O` [Example 42] (cyclo([4Pal][Phe(4-COOH)]G[Pro(cis-4-F)][Trp(βS-Me,4-F)][Aib]SW[Aib][Ala(pyrimidin-5-yl)]Q[Dab]G[dPro(4R-(4-pyridylmethyl))][Bip(4'-COOH)])) here?
A: The IC50 was 0.021 nM.
